Measurements taken from PMC3738524, “Bioenergetic and Antiapoptotic Properties of Mitochondria from Cultured Human Prostate Cancer Cell Lines PC-3, DU145 and LNCaP” (PLoS ONE, 2013).
Where two headings read alike, the source gives them in different places.

Molecular target: T1, Complex I (NADH dehydrogenase) (Homo sapiens, UniProt P49821)
T1 construct: gene NDUFV1
Settings: optimal decylubiquinone as acceptor, 30 °C, '+' printed for ±

T1 sequence (P19404 33-249): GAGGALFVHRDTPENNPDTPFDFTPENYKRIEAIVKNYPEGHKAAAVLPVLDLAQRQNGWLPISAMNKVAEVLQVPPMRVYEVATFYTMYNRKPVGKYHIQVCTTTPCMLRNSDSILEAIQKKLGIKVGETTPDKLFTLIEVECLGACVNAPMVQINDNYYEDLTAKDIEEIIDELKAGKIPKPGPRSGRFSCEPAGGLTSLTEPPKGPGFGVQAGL
T1 sequence (P28331 24-727, further chain): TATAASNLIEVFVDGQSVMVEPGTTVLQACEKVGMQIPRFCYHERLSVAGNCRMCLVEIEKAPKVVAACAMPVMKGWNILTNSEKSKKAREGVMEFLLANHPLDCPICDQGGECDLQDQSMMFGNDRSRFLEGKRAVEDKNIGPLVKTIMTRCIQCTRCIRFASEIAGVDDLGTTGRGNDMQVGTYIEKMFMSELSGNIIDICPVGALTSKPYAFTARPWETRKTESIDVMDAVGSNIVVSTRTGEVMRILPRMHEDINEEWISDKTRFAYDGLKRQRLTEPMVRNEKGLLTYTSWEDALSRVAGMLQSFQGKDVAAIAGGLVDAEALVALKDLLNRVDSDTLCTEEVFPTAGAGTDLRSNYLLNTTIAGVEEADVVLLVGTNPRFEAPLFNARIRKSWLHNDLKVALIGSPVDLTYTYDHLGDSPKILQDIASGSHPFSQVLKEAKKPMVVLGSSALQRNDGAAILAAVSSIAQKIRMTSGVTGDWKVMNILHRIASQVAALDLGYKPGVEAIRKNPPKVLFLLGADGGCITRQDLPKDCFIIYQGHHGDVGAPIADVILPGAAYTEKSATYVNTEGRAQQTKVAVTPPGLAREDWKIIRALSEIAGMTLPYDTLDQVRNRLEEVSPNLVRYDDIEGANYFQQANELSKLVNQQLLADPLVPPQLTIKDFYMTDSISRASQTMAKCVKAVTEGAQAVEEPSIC
T1 sequence (P49821 21-464): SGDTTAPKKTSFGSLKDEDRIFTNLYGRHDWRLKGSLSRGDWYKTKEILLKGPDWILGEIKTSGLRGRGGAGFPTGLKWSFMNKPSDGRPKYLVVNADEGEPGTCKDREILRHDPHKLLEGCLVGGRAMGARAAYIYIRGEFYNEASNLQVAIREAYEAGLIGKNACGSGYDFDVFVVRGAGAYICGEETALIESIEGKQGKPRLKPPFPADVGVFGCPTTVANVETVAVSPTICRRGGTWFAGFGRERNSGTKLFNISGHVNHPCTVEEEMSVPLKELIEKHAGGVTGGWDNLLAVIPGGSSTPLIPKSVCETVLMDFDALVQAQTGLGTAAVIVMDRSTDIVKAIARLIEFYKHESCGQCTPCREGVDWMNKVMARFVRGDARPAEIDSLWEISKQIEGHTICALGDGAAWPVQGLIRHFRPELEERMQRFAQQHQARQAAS

Structure (SMILES): NC(=O)C1=CN([C@@H]2O[C@H](COP(=O)(O)OP(=O)(O)OC[C@H]3O[C@@H](n4cnc5c(N)ncnc54)[C@H](O)[C@@H]3O)[C@@H](O)[C@H]2O)C=CC1 [NADH]
- KM^NADH (EBV-transformed normal lymphoblastoid HLB cells): 1.8+0.1 µM
- KM^NADH (fibrosarcoma HT1080C cells): 5+2 µM
- KM^NADH (normal prostate epithelial PrEC cells): 4+0.5 µM
- KM^NADH (prostate cancer cells PC-3, DU145 and LNCaP (one common value printed)): 20+2.5 µM
